# Data: patent US20240334934A1, “FUNGICIDE MIXTURE” (priority 2021, published 2024)
# Read-outs that look alike come from different tables or passages of the source.
# Assays:
# [1] = test system: Fusarium langsethiae K5670; assay type: cell-based; conditions: CtmC 10 ppm
# [2] = test system: Gibberella zeae (Fusarium graminearum); assay: microbe, parasite or virus in culture; assay type: cell-based; conditions: read-out: % Efficacy
# [3] = test system: Fusarium virguliforme isolate 2; assay: Efficacy of purified CtmC, 96-well growth assay, IC50 from OD620; assay type: cell-based
# Method: (§1) A Fusarium virguliforme spore suspension of 25′000 spores/ml was produced in PDB (potato dextrose broth) medium supplemented with 0.3% agar. Isolates of the species originate from Syngenta internal collection (CH).
# (§2) CtmC was dissolved in DMSO (Dimethylsulfoxid) to a final concentration of 1000 ppm to create a stock solution. Different dilutions of CtmC were created in DMSO: 1000 ppm, 330 ppm, 110 ppm, 37 ppm, 12 ppm and 4.1 ppm. 10 μl of DMSO or CtmC solution were transferred to a 96-well-dilution plate and diluted 10-fold with 90 μl 0.025% Tween 20/1H2O solution. Out of the dilution plate, 10 μl were transferred to a 96 well assay plate and 90 μl spore suspension were added to each well.
# (§3) 96 Well plates were then incubated for 72 h at 24° C., 90% relative humidity in the dark. Plates were evaluated by reading the OD at 620 nm.
# (§4) Assays were run on two independent isolates for the species. Each isolate was tested twice (assay 1 and assay 2) and each isolate x fungicide rate combination was duplicated on the test plates.
# (§5) The OD620 was averaged over the two wells and used to calculate IC50 values (fungicide concentration resulting in 50% inhibition of growth) with the program GraphPad prism, resulting in 4 independent IC50 values. No significant differences were found between both isolates tested: […]
# [4] = test system: Fusarium virguliforme isolate 1; assay: as above; assay type: cell-based
# Method: as §1, §2, §3, §4, §5
# genus Bacillus = conditions: statement of WO2015191789, Table 6; cited from earlier work
# Gibberella zeae K6934 = assay type: cell-based; conditions: CtmC 10 ppm
# [5] = test system: Zymoseptoria tritici K6420; assay: Efficacy of mixtures of streptimidone and CtmC, liquid culture in PDB, optical density 620 nm; assay type: cell-based; conditions: K6420, read-out: % Efficacy
# Phakopsora pachyrhizi = assay: Leaf disc assay, soybean leaf disks, preventive; assay type: in vivo; conditions: rate 20 ppm, approx. 12 dpi
# Method: (§6) A CtmC stock was generated at 1000 ppm in DMSO, then Diluted 1:50 in water+Tween 20 at 0.025% resulting in a 20 ppm solution.
# Phakopsora pachyrhizi (Asian Soybean rust): Soybean leaf disks are placed on agar in multiwell plates (24-well format) and sprayed with test solutions. After drying, the leaf disks are inoculated with a spore suspension of the fungus. After appropriate incubation the activity of a compound is assessed approx. 12 dpi (days after inoculation) as preventive fungicidal activity
# [6] = test system: Fusarium sporotrichioides K7901; assay type: cell-based; conditions: CtmC 10 ppm
# [7] = test system: Fusarium virguliforme isolate 2; assay: Effect of Tween 20 on efficacy of purified CtmC, EC50; assay type: cell-based
# Source text: (§7) This is contrary to our results. In order to eliminate the possibility that the fungicidal effect that we observe was down to the presence of Tween 20 we carried out some experiments like those in Example 3 but with various levels of Tween 20, including none.
# (§8) The experiment at outlined in Example 3 was repeated to evaluate the EC50 values for CtmC control on Fusarium virguliforme in presence of 4 different rates of Tween20: 0% (absence of Tween 20), 0.0025%, 0.0050% […] and 0.0100%. The plate layout was identical to Example 7, except that the plates were multiplied 4 times to accommodate the different Tween 20 concentrations in the assay plate. All other experimental conditions were kept identical. Fusarium isolates were tested at 25′000 sp/ml.
# [8] = test system: Fusarium virguliforme isolate 1; assay: as above; assay type: cell-based
# Source text: as §7, §8
# Gibberella zeae K6102 = assay type: cell-based; conditions: CtmC 10 ppm
# Puccinia triticina = assay: Leaf disc assay, wheat leaf segments, preventive; assay type: in vivo; conditions: rate 20 ppm, 8 dpi
# Method: as §6
# Puccinia triticina (also known as recondite, Brown rust, wheat): Wheat leaf segments are placed on agar in multiwell plates (24-well format) and sprayed with test solutions. After drying, the leaf disks are inoculated with a spore suspension of the fungus. After appropriate incubation the activity of a compound is assessed 8 dpi (days after inoculation) as preventive fungicidal activity.
# [9] = test system: a variety of fungal strains; conditions: statement of WO2015191789, cited from earlier work
# Monographella nivalis = assay: Efficacy of purified CtmC in-vitro, microtiter plate growth inhibition; assay type: cell-based; conditions: rate 10 ppm; 72 hrs at 24° C.
# Method: CtmC was dissolved in DMSO (Dimethylsulfoxid) to a final concentration of 1000 ppm to create a stock solution. A second dilutions of 1:10 was made in water+0.025% Tween 20. From this second dilution 10 μl are dispensed into a 96-well plate. To each well, 90 μl of medium with fungal spores are added and mixed, resulting in final CtmC concentrations of 10 ppm. All wells containing CtmC also contain DMSO (1%) and Tween 20 (0.0025%).
# Monographella nivalis (snow mould, foot rot of cereals): Conidia of the fungus from cryogenic storage were directly mixed into nutrient broth (PDB potato dextrose broth). After placing a solution of the test compounds into a microtiter plate (96-well format) the nutrient broth containing the fungal spores was added.
# [10] = 72 h at 24° C., 25'000 spores/ml
structure (smiles),measurement,setting,value
"C=C1NC(=O)CNC(=O)[C@H](CCCCN)NC(=O)[C@@]2(C)NC(=O)/C(=C/C)NC(=O)[C@H]3CSC(=N3)[C@@H](CC(N)=O)CC(=O)c3ccc(nc3[C@@H](C)NC(=O)[C@@H]3CCCN3C1=O)-c1nc(cs1)C1=N[C@H](CS1)C(=O)NC(=C)c1nc(cs1)-c1nc(cs1)C1=N[C@@H](CS1)C(=O)N[C@@H](C(=O)O)CS2 [CtmC, cyclothiazomycin C]",efficacy (%),[1],94%
same,optical density at 620 nm,"[1]; blank 0.053, untreated 0.346",0.072
same,Emax at 20 ppm,[2],37%
same,IC50 (ppm) Assay-1,[3]; [10],0.7 ppm
same,IC50 (ppm) Assay-2,[3]; [10],1.5 ppm
same,IC50 (ppm) average,[3]; average of Assay-1 and Assay-2,1.1 ppm
same,IC50,[3]; both tested isolates,ca. 1 ppm
same,IC50 (ppm) Assay-1,[4]; [10],0.8 ppm
same,IC50 (ppm) Assay-2,[4]; [10],1.6 ppm
same,IC50 (ppm) average,[4]; average of Assay-1 and Assay-2,1.2 ppm
same,IC50,[4]; both tested isolates,ca. 1 ppm
same,inhibitory activity,genus Bacillus,greatest inhibitory activity
same,efficacy (%),Gibberella zeae K6934,48%
same,optical density at 620 nm,"Gibberella zeae K6934; blank 0.052, untreated 0.641",0.361
same,Emax at 0.0556 ppm,[5],0%
same,Emax at 0.1667 ppm,[5],23%
same,Emax at 0.5 ppm,[5],47%
same,control of fungal growth (%),Phakopsora pachyrhizi,50%
same,efficacy (%),[6],71%
same,optical density at 620 nm,"[6]; blank 0.052, untreated 0.666",0.231
same,EC50 (ppm),[7]; Tween 20 0%,1.098 ppm
same,EC50 (ppm),[7]; Tween 20 0.0025%,0.889 ppm
same,EC50 (ppm),[7]; Tween 20 0.0050%,0.7844 ppm
same,EC50 (ppm),[7]; Tween 20 0.0100%,1.035 ppm
same,EC50 (ppm),[8]; Tween 20 0%,1.422 ppm
same,EC50 (ppm),[8]; Tween 20 0.0025%,1.053 ppm
same,EC50 (ppm),[8]; Tween 20 0.0050%,0.8103 ppm
same,EC50 (ppm),[8]; Tween 20 0.0100%,1.436 ppm
same,efficacy (%),Gibberella zeae K6102,52%
same,optical density at 620 nm,"Gibberella zeae K6102; blank 0.044, untreated 0.733",0.377
same,control of fungal growth (%),Puccinia triticina,90%
same,growth inhibitory action toward a variety of fungal strains,[9]; listed as Cyclothiazomycin C,no fungal inhibitory action
same,growth inhibitory action toward a variety of fungal strains,[9]; listed as cyclothiazomycin C,none was observed
same,control of fungal growth (%),Monographella nivalis,100%
